# Laboratory results from paper PMC7144934, “Design, Synthesis and Biological Evaluation of Phenyl Urea Derivatives as IDO1 Inhibitors” (Molecules, 2020).
# Assays:
# [1] = biological target: T1, Recombinant human IDO1 (rhIDO1) (Homo sapiens, UniProt P14902); test: Enzyme assay for IDO1 inhibition; type: biochemical; conditions: for IC50 / IDO1 inhibitory activity (in words): rhIDO1 enzyme assay; for IC50: 37 °C, 45 min
# T1 construct: made in house
# [2] = biological target: T2, Recombinant human TDO (rhTDO) (Homo sapiens, UniProt P48775); test: Enzyme assay for TDO inhibition; type: biochemical; conditions: 37 °C, 45 min
# T2 construct: made in house
# Procedure: Recombinant human IDO1 and TDO were expressed and purified according to the reported procedures. The assay was performed according to the literature: A standard reaction mixture (100 µL) containing 100 mM potassium phosphate buffer (pH 6.5), 40 mM ascorbic acid (neutralized with NaOH), 200 µg/mL catalase, 20 µM methylene blue and 0.05 µM rhIDO1 or rhTDO was added to the solution containing the substrate L-tryptophan and the test sample at a determined concentration. The reaction was carried out at 37 °C for 45 min and stopped by adding 20 µL of 30% (w/v) trichloroacetic acid. After heating at 65 °C for 15 min, 100 µL of 2% (w/v) p-dimethylaminobenzaldehyde in acetic acid was added to each well. The yellow pigment derived from kynurenine was measured at 492 nm using a SYNERGY-H1 microplate reader (Biotek Instruments, Inc., Winooski, VT, USA). IC50 was analyzed using the GraphPad Prism 8.0 software (GraphPad Software, San Diego, CA, USA).
# T1 sequence (P14902 whole entry): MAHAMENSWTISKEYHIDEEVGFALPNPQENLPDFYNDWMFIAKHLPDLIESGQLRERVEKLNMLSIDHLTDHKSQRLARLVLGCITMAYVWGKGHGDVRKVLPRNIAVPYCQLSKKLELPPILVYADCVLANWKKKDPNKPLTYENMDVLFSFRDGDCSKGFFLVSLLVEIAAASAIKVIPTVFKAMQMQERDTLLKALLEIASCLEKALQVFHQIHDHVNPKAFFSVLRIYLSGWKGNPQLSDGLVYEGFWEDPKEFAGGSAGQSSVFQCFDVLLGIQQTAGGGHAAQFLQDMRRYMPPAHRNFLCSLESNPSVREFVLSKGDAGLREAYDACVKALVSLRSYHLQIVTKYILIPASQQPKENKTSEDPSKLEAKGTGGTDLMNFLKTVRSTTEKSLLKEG
# T2 sequence (P48775 whole entry): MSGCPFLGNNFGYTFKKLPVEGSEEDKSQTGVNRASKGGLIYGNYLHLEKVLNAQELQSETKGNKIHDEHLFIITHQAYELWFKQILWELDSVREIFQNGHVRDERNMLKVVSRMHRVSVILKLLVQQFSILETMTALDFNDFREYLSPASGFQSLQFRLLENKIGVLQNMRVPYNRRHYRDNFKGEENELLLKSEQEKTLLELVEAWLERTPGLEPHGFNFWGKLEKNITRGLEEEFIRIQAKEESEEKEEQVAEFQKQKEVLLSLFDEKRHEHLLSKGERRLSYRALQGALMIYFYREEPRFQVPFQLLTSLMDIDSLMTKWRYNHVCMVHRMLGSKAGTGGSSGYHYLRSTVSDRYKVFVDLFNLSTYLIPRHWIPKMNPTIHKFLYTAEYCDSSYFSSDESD
IC50 [1] [µM],IC50 [2] [µM],IDO1 inhibitory activity (in words) [1],fold more potent than compound BMS-E30 (IDO1) ([1]; ratio of IDO1 enzyme IC50 values) [fold],SMILES
> 100,> 100,–,–,"CCOC(=O)CC(c1ccc(N2CC(C)CC(C)C2)c(NC(=O)Nc2ccccc2)c1)C(F)(F)F (stereo not shown) [g1, 3-[4-(3,5-dimethylpiperidin-1-yl)-3-(3-phenylureido)-phenyl]-4,4,4-trifluorobutyric Acid Ethyl Ester]"
> 100,> 100,–,–,"CCOC(=O)CC(c1ccc(N2CC(C)CC(C)C2)c(NC(=O)Nc2ccc(C)cc2)c1)C(F)(F)F (stereo not shown) [g2, 3-[4-(3,5-dimethylpiperidin-1-yl)-3-(3-p-tolylureido)phenyl]-4,4,4-trifluorobutyric Acid Ethyl Ester]"
> 100,> 100,–,–,"CCOC(=O)CC(c1ccc(N2CC(C)CC(C)C2)c(NC(=O)Nc2ccc(Cl)cc2)c1)C(F)(F)F (stereo not shown) [g3, 3-[3-[3-(4-chlorophenyl)-ureido]-4-(3,5-dimethylpiperidin-1-yl)-phenyl]-4,4,4-trifluorobutyric Acid Ethyl Ester]"
> 100,> 100,loss of inhibition,–,"CC1CC(C)CN(c2ccc(C(CC(=O)O)C(F)(F)F)cc2NC(=O)NC2CCCCC2)C1 (stereo not shown) [i4, 3-[3-(3-cyclohexylureido)-4-(3,5-dimethylpiperidin-1-yl)phenyl]-4,4,4-trifluorobutyric Acid]"
> 100,> 100,loss of inhibition,–,"CCCCNC(=O)Nc1cc(C(CC(=O)O)C(F)(F)F)ccc1N1CC(C)CC(C)C1 (stereo not shown) [i5, 3-[3-(3-butylureido)-4-(3,5-dimethylpiperidin-1-yl)-phenyl]-4,4,4-trifluorobutyric Acid]"
> 100,> 100,lost all IDO1 inhibitory activity,–,"Cc1ccccc1NC(=O)Nc1cc(C(CC(=O)O)C(F)(F)F)ccc1N1CC(C)CC(C)C1 (stereo not shown) [i6, 3-[4-(3,5-dimethylpiperidin-1-yl)-3-(3-o-tolylureido)phenyl]-4,4,4-trifluorobutyric Acid]"
> 100,> 100,lost all IDO1 inhibitory activity,–,"Cc1cccc(NC(=O)Nc2cc(C(CC(=O)O)C(F)(F)F)ccc2N2CC(C)CC(C)C2)c1 (stereo not shown) [i7, 3-[4-(3,5-dimethylpiperidin-1-yl)-3-(3-m-tolylureido)phenyl]-4,4,4-trifluorobutyric Acid]"
> 100,> 100,lost all IDO1 inhibitory activity,–,"CC1CC(C)CN(c2ccc(C(CC(=O)O)C(F)(F)F)cc2NC(=O)Nc2ccccc2Cl)C1 (stereo not shown) [i8, 3-[3-[3-(2-chlorophenyl)ureido]-4-(3,5-dimethylpiperidin-1-yl)-phenyl]-4,4,4-trifluorobutyric Acid]"
> 100,> 100,lost all IDO1 inhibitory activity,–,"CC1CC(C)CN(c2ccc(C(CC(=O)O)C(F)(F)F)cc2NC(=O)Nc2cccc(Cl)c2)C1 (stereo not shown) [i9, 3-[3-[3-(3-chlorophenyl)ureido]-4-(3,5-dimethylpiperidin-1-yl)-phenyl]-4,4,4-trifluorobutyric Acid]"
> 100,> 100,lost all IDO1 inhibitory activity,–,"CC1CC(C)CN(c2ccc(C(CC(=O)O)C(F)(F)F)cc2NC(=O)Nc2ccccc2C#N)C1 (stereo not shown) [i10, 3-[3-[3-(2-cyanophenyl)ureido]-4-(3,5-dimethylpiperidin-1-yl)-phenyl]-4,4,4-trifluorobutyric Acid]"
> 100,> 100,lost all IDO1 inhibitory activity,–,"CC1CC(C)CN(c2ccc(C(CC(=O)O)C(F)(F)F)cc2NC(=O)Nc2cccc(C#N)c2)C1 (stereo not shown) [i11, 3-[3-[3-(3-cyanophenyl)ureido]-4-(3,5-dimethylpiperidin-1-yl)-phenyl]-4,4,4-trifluorobutyric Acid]"
> 100,> 100,lost all IDO1 inhibitory activity,–,"COc1ccccc1NC(=O)Nc1cc(C(CC(=O)O)C(F)(F)F)ccc1N1CC(C)CC(C)C1 (stereo not shown) [i13, 3-{4-(3,5-dimethylpiperidin-1-yl)-3-[3-(2-methoxyphenyl)ureido]-phenyl}-4,4,4-trifluorobutyric Acid]"
> 100,> 100,lost all IDO1 inhibitory activity,–,"COc1cccc(NC(=O)Nc2cc(C(CC(=O)O)C(F)(F)F)ccc2N2CC(C)CC(C)C2)c1 (stereo not shown) [i14, 3-{4-(3,5-dimethylpiperidin-1-yl)-3-[3-(3-methoxyphenyl)ureido]-phenyl}-4,4,4-trifluorobutyric Acid]"
> 100,> 100,no inhibitory activities,–,"CC1CC(C)CN(c2ccc(C(CC(=O)O)C(F)(F)F)cc2NC(=O)Nc2ccc(F)cc2F)C1 (stereo not shown) [i16, 3-[3-[3-(2,4-difluorophenyl)ureido]-4-(3,5-dimethylpiperidin-1-yl)-phenyl]-4,4,4-trifluorobutyric Acid]"
> 100,> 100,no inhibitory activities,–,"CC1CC(C)CN(c2ccc(C(CC(=O)O)C(F)(F)F)cc2NC(=O)Nc2ccc(Cl)cc2Cl)C1 (stereo not shown) [i17, 3-[3-[3-(2,4-dichlorophenyl)ureido]-4-(3,5-dimethylpiperidin-1-yl)-phenyl]-4,4,4-trifluorobutyric Acid]"
5.48,> 100,–,–,"CC1CC(C)CN(c2ccc(C(CC(=O)O)C(F)(F)F)cc2NC(=O)Nc2ccc(F)cc2)C1 (stereo not shown) [i18, 3-{4-(3,5-dimethylpiperidin-1-yl)-3-[3-(4-fluorophenyl)ureido]-phenyl}-4,4,4-trifluorobutyric Acid]"
4.08,> 100,–,–,"CC1CC(C)CN(c2ccc(C(CC(=O)O)C(F)(F)F)cc2NC(=O)Nc2ccc(Br)cc2)C1 (stereo not shown) [i19, 3-[3-[3-(4-bromophenyl)ureido]-4-(3,5-dimethylpiperidin-1-yl)-phenyl]-4,4,4-trifluorobutyric Acid]"
9.98,> 100,–,–,"CCc1ccc(NC(=O)Nc2cc(C(CC(=O)O)C(F)(F)F)ccc2N2CC(C)CC(C)C2)cc1 (stereo not shown) [i20, 3-{4-(3,5-dimethylpiperidin-1-yl)-3-[3-(4-ethylphenyl)ureido]phenyl}-4,4,4-trifluorobutyric Acid]"
> 100,> 100,loss of activity,–,"CC1CC(C)CN(c2ccc(C(CC(=O)O)C(F)(F)F)cc2NC(=O)Nc2ccc(C(C)C)cc2)C1 (stereo not shown) [i21, 3-{4-(3,5-dimethylpiperidin-1-yl)-3-[3-(4-isopropylphenyl)ureido]-phenyl}-4,4,4-trifluorobutyric Acid]"
1.32,> 100,–,–,"CC1CC(C)CN(c2ccc(C(CC(=O)O)C(F)(F)F)cc2NC(=O)Nc2ccc(OC(F)(F)F)cc2)C1 (stereo not shown) [i22, 3-{4-(3,5-dimethylpiperidin-1-yl)-3-[3-(4-trifluoromethoxyphenyl)-ureido]phenyl}-4,4,4-trifluorobutyric Acid]"
0.415,> 100,–,–,"CC1CC(C)CN(c2ccc(C(CC(=O)O)C(F)(F)F)cc2NC(=O)Nc2ccc(C(F)(F)F)cc2)C1 (stereo not shown) [i23, 3-{4-(3,5-dimethylpiperidin-1-yl)-3-[3-(4-trifluoromethylphenyl)-ureido]phenyl}-4,4,4-trifluorobutyric Acid]"
0.157,> 100,–,55,"CC1CC(C)CN(c2ccc(C(CC(=O)O)C(F)(F)F)cc2NC(=O)Nc2ccc([N+](=O)[O-])cc2)C1 (stereo not shown) [i24, 3-{4-(3,5-dimethylpiperidin-1-yl)-3-[3-(4-nitrophenyl)ureido]phenyl}-4,4,4-trifluorobutyric Acid]"
> 100,> 100,no inhibitory activity,–,"CC1CC(C)CN(c2ccc(C(CC(=O)O)C(F)(F)F)cc2NC(=O)Cc2ccc(C#N)cc2)C1 (stereo not shown) [j1, 3-[3-[2-(4-cyanophenyl)acetylamino]-4-(3,5-dimethylpiperidin-1-yl)-phenyl]-4,4,4-trifluorobutyric Acid]"
> 100,> 100,no inhibitory activity,–,"CC1CC(C)CN(c2ccc(C(CC(=O)O)C(F)(F)F)cc2NC(=O)Cc2ccc(C(F)(F)F)cc2)C1 (stereo not shown) [j2, 3-{4-(3,5-dimethylpiperidin-1-yl)-3-[2-(4-trifluoromethylphenyl)-acetylamino]phenyl}-4,4,4-trifluorobutyric Acid]"

SMILES,IC50 [1] [µM],IC50 [2] [µM],IDO1 inhibitory activity (in words) [1],fold more potent than compound BMS-E30 (IDO1) ([1]; ratio of IDO1 enzyme IC50 values) [fold]
"Cc1ccc(NC(=O)Nc2cc(C(CC(=O)O)C(F)(F)F)ccc2N2CC(C)CC(C)C2)cc1 (stereo not shown) [i2, 3-[4-(3,5-dimethylpiperidin-1-yl)-3-(3-p-tolylureido)phenyl]-4,4,4-trifluorobutyric Acid]",8.61,> 100,more potent IDO1 inhibitory activity than the unsubstituted i1,–
"CC1CC(C)CN(c2ccc(C(CC(=O)O)C(F)(F)F)cc2NC(=O)Nc2ccc(Cl)cc2)C1 (stereo not shown) [i3, 3-[3-[3-(4-chlorophenyl)ureido]-4-(3,5-dimethylpiperidin-1-yl)-phenyl]-4,4,4-trifluorobutyric Acid]",5.69,> 100,more potent IDO1 inhibitory activity than the unsubstituted i1,–
"COc1ccc(NC(=O)Nc2cc(C(CC(=O)O)C(F)(F)F)ccc2N2CC(C)CC(C)C2)cc1 (stereo not shown) [i15, 3-{4-(3,5-dimethylpiperidin-1-yl)-3-[3-(4-methoxyphenyl)ureido]-phenyl}-4,4,4-trifluorobutyric Acid]",1.62,> 100,more potent IDO1 inhibitory activity than the unsubstituted i1,–
